In data set [1] the test system is motoneurones of isolated newborn rat spinal cord (NMDA type receptor). As to the kind of experiment: depolarizing activity test, isolated newborn rat spinal cord (potential changes in motoneurones recorded from ventral root). Particulars: for minimal effective concentration: read-out: Minimum effective concentration; for activity in the presence of 2-APV or Mg++: measured in the presence of 2APV or Mg++; for Minimum effective concentration, relative activity: relative to L-Glu = 1; for type of activity: spinal cord of a rat; for depolarizing activity, times as potent as L-glutamic acid: rat spinal cord, relative to L-glutamic acid. Here is the method: The methods used for the electrophysiological experiment in the isolated newborn rat spiral cord were essentially similar to those described by Ohtsuka et al. (Nature, 252, 733-734, 1974). The potential changes generated in the motoneurones induced by L-glutamate analogues, namely, (2R,3S,4S)-α-(carboxycyclopropyl)glycine (1) of this invention and one of the stereoisomers, (2S,3R,4S)-α-(carboxycyclopropyl)-glycine (2) were recorded extracellularly from the ventral root with a suction electrode.

Data set [2] has the same test system. The conditions noted are these: newborn rat spinal cord preparation; from Japanese Patent Application No. 129626/88; cited from earlier work.
For data set [3] the following is noted: Fowden et al., Phytochemistry, 8, 437, 1969; cited from earlier work.
Where [4] appears, read: isolated newborn rat spinal cord, depolarization recorded extracellularly from ventral root.

Like-named read-outs stand apart in the source and are kept apart here.

For `N[C@H](C(=O)O)[C@@H]1C[C@@H]1C(=O)O` [(2), (2S,3R,4S)-α-(carboxycyclopropyl)glycine], the minimal effective concentration in data set [1] (setting [4]) came out at 1 µM. In data set [1], the “activity in the presence of 2-APV or Mg++” value was “activity disappeared”; the “Minimum effective concentration, relative activity” value was 100; the type of activity entry was “potent NMDA-type depolarization”. The “depolarizing activity, times more potent than L-glutamate” value in data set [2] is “about 100 times”.

As to `N[C@H](C(=O)O)[C@H]1C[C@H]1C(=O)O` [(2S,3S,4R)-α-(carboxycyclopropyl)glycine], the effects caused result in data set [3] was “hypoglycemia and amesis”.

Take `N[C@H](C(=O)O)[C@H]1C[C@@H]1C(=O)O` [(2S,3S,4S)-α-(carboxycyclopropyl)glycine]: the effects caused result in data set [3] was “hypoglycemia and amesis”.

Consider `N[C@@H](C(=O)O)[C@H]1C[C@@H]1C(=O)O` [Compound (1), (2R,3S,4S)-α-(carboxycyclopropyl)glycine], for which the minimal effective concentration in data set [1] (setting [4]) turned out to be 0.3 µM. In data set [1], the “activity in the presence of 2-APV or Mg++” value is listed as “activity disappears”; the “depolarizing activity, times as potent as L-glutamic acid” value amounted to 300 times; the “Minimum effective concentration, relative activity” value stood at 300; the type of activity entry is given as “N-methyl-D-aspartic acid (NMDA) like activity”. The “depolarizing activity, times as potent as L-glutamic acid” value in data set [1] (listed as (2R,3S,4S)-α-(carboxycyclopropyl)glycine) is “more than 300 times”. Besides, the “depolarizing activity compared with NMDA” value in data set [1] (relative to NMDA) is reported as “much more potent than NMDA”. In addition, the “depolarizing activity, times as potent as compound (2)” value in data set [1] (relative to compound (2)) came out at 3 times.

In the case of `N[C@@H](CCC(=O)O)C(=O)O` [L-Glu, L-glutamic acid], the minimal effective concentration in data set [1] (Rattus norvegicus) turned out to be 100 µM. Moreover, in data set [1], the “Minimum effective concentration, relative activity” value turned out to be 1.

The values are drawn from US5068412A, “(2R,3S,4S)-α-(carboxycyclopropyl)glycine” (Suntory Limited, priority 1988, dated 1991).
